Test results as given in patent US12522597B2, “Methods and compositions for modulating splicing” (Skyhawk Therapeutics, Inc., priority 2019, dated 2026).
pEC50: −log10 of the molar value. Read-outs that look alike come from different tables or passages of the source.

How the values were obtained:
mHTT protein = mHTT protein assay (2B7-MW1, Mesoscale Discovery); type: cell-based, human; conditions: GM04724 (CAG 70/20) Huntington's disease patient lymphoblast cells, 48 hours, 2B7-MW1 MSD; read-out: HTT Potency - Protein EC50 mHTT (average)
Outline: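 mHTT levels were read with the 2B7-MW1 antibody pair (N17 and polyQ epitopes) on MSD after 48 h dosing, 10 μM–0.6 nM. Cells were GM04724 HD lymphoblasts (CAG 70/20). A replica plate was read by CTG for cell viability.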

[1] = tested on: Huntingtin (HTT) transcripts; test: Quantitative splicing assay (HTT), qPCR; type: cell-based; conditions: Homo sapiens, GM04724 (CAG 70/20) Huntington's disease patient lymphoblasts, 24 h
Procedure: GM04724 (CAG 70/20) Huntington's disease patient lymphoblasts (Coriell) are plated in 96-wel v-bottom plates at 50,000 cells/well. Immediately after plating, cells are dosed with compound for 24 h at concentrations ranging from 2.5 uM to 0.15 nM (0.1% DMSO). Treated cells are lysed and cDNA synthesized using the Fast Advanced Cells-to-Ct kit (Thermofisher A35378) according to the manufacturer's instructions. 2 uL of each cDNA are used in qPCR reactions to confirm the compound-induced inclusion of a cryptic exon within intron 49 of the Huntingtin (HTT) transcripts. The qPCR reactions are prepared in 384-well plates in 10 uL volume, using TaqMan™ Fast Advanced Master Mix [ThermoFisher; 4444965] with primers and probes shown in the table below. Reactions are run in a Quant Studio 6 qPCR instrument with default settings.

MDR1 = test: MDCK-MDR1 permeability assay (BBB penetration potential); type: in vitro ADME; conditions: dog; for efflux ratio at 120 min, 5 μM: MDCK-MDR1, pH 7.4, MDCK-MDR1: Efflux; for Papp A→B at 120 min, 5 μM: MDCK-MDR1, pH 7.4, MDCK-MDR1: Papp A-B; for Papp B→A at 120 min, 5 μM: MDCK-MDR1, pH 7.4, MDCK-MDR1: Papp B-A
Procedure: (§1) Each determination is performed in duplicate. […] Analytical conditions are outlined below.

[2] = tested on: MDR1-MDCK cell monolayers; test: as above; type: in vitro ADME; conditions: dog, MDCK-MDR1, 120 min, 5 μM, pH 7.4
Procedure: as §1

[3] = qPCR HTTex49_50, read-out: HTT Potency - Splicing: E49-50 EC50 (average)
[4] = qPCR cryptic exon 49b inclusion, read-out: HTT Potency - Splicing: E49b EC50 (average)

Structure (SMILES) | pEC50 (mHTT protein) | pEC50 [1, 3] | pEC50 [1, 4] | efflux ratio at 120 min, 5 μM (MDR1) | Papp A→B at 120 min, 5 μM (MDR1) [×10⁻⁶ cm/s] | Papp B→A at 120 min, 5 μM (MDR1) [×10⁻⁶ cm/s] | MDCK-MDR1: % Recov A-B [2] [%] | MDCK-MDR1: % Recov B-A [2] [%] | MDCK-MDR1: Efflux [2] | MDCK-MDR1: Papp A-B [2] | MDCK-MDR1: Papp B-A [2]
Cn1cc(-c2ccc(-c3ccc(O[C@@H]4C[C@@]5(C)CCC[C@](C)(N5)[C@@H]4F)nn3)c(O)c2)cn1 (single isomer, unassigned) [154-ENT2] | 7.30 to 7.80 | 7.30 to 7.80 | 7.82 to 11.00 | 3 | 6.92 | 22 | 81 | 92 |  |  | 
Cn1ccc(-c2ccc(-c3ccc(O[C@@H]4C[C@@]5(C)CCC[C@](C)(N5)[C@@H]4F)nn3)c(O)c2)cc1=O (single isomer, unassigned) [149-ENT2] | 7.30 to 7.80 | 7.30 to 7.80 | 7.30 to 7.80 | 24 | 1.94 | 45.7 | 76 | 73 |  |  | 
Cn1ccc2cc(-c3ccc(O[C@@H]4C[C@@]5(C)CC[C@](C)(N5)[C@@H]4F)nn3)c(O)cc2c1=O (single isomer, unassigned) [127-ENT2] | 7.30 to 7.80 | 7.00 to 7.29 | 7.30 to 7.80 | 6 | 9.29 | 55.3 | 89 | 103 |  |  | 
Cn1cc(-c2ccc(-c3ccc(O[C@@H]4C[C@H]5CC[C@H](N5)[C@@H]4F)nn3)c(O)c2)cn1 (single isomer, unassigned) [60-ENT1] | 7.30 to 7.80 | 7.00 to 7.29 | 7.30 to 7.80 | 4 | 7.46 | 30.5 | 68 | 84 |  |  | 
Cn1cnc(-c2ccc(-c3ccc(O[C@@H]4C[C@@]5(C)CCC[C@](C)(N5)[C@@H]4F)nn3)c(O)c2)cc1=O (single isomer, unassigned) [139-ENT1] | 7.82 to 11.00 | 7.30 to 7.80 | 7.30 to 7.80 | 14 | 2.36 | 32.1 | 75 | 75 |  |  | 
Cn1c(=O)oc2cc(-c3ccc(O[C@H]4C[C@@H]5CCC[C@@H](N5)[C@H]4F)nn3)c(O)cc21 (single isomer, unassigned) [74-ENT2] | 5.00 to 6.30 | 5.00 to 6.30 | 5.00 to 6.30 | 5 | 6.96 | 31.4 | 87 | 75 |  |  | 
Cn1ccc(-c2ccc(-c3ccc(O[C@@H]4C[C@H]5CCC[C@H](N5)[C@@H]4F)nn3)c(O)c2)n1 (single isomer, unassigned) [68-ENT1] | 7.30 to 7.80 | 7.30 to 7.80 | 7.30 to 7.80 | 6 | 8.61 | 51.9 | 87 | 79 |  |  | 
Cn1cc(-c2cc(O)c(-c3ccc(O[C@@H]4C[C@H]5CC[C@H](N5)[C@@H]4F)nn3)cc2F)cn1 (single isomer, unassigned) [61-ENT1] | 7.30 to 7.80 | 7.30 to 7.80 | 7.82 to 11.00 | 3 | 4.83 | 13.8 | 43 | 79 |  |  | 
O=c1cc(-c2ccc(-c3ccc(O[C@@H]4C[C@H]5CCC[C@H](N5)[C@@H]4F)nn3)c(O)c2)cc[nH]1 (single isomer, unassigned) [53-ENT1] | 6.30 to 7.00 | 6.30 to 7.00 | 6.30 to 7.00 | 103 | 0.22 | 22.2 | 91 | 90 |  |  | 
Cn1cc(-c2ccc(-c3ccc(O[C@@H]4C[C@@]5(C)CC[C@](C)(N5)[C@@H]4F)nn3)c(O)c2)cn1 (single isomer, unassigned) [150-ENT2] | 7.30 to 7.80 | 7.30 to 7.80 | 7.30 to 7.80 | 4 | 9.06 | 38.6 | 78 | 87 |  |  | 
Cc1ccc(-c2ccc(-c3ccc(O[C@H]4C[C@@H]5CCC[C@@H](N5)[C@H]4F)nn3)c(O)c2)nn1 (single isomer, unassigned) [75-ENT2] | 5.00 to 6.30 | 5.00 to 6.30 | 5.00 to 6.30 | 10 | 3.96 | 39.7 | 82 | 78 |  |  | 
Cn1ccc(-c2ccc(-c3ccc(O[C@H]4C[C@@H]5CCC[C@@H](N5)[C@H]4F)nn3)c(O)c2)n1 (single isomer, unassigned) [68-ENT2] | 6.30 to 7.00 | 7.30 to 7.80 | 7.30 to 7.80 | 4 | 8.23 | 31.6 | 76 | 89 |  |  | 
Cn1cc(-c2ccc(-c3ccc(O[C@H]4C[C@@H]5CCC[C@@H](N5)[C@H]4F)nn3)c(O)c2)cn1 (single isomer, unassigned) [1-ENT2] | 7.82 to 11.00 | 7.30 to 7.80 | 7.30 to 7.80 | 6 | 6.05 | 33.7 | 76 | 83 |  |  | 
Oc1cc(-c2cn[nH]c2)c(F)cc1-c1ccc(O[C@H]2C[C@@H]3CCC[C@@H](N3)[C@H]2F)nn1 (single isomer, unassigned) [56-ENT2] | 7.82 to 11.00 | 7.82 to 11.00 | 7.82 to 11.00 | 13 | 2.69 | 36 | 68 | 79 |  |  | 
Oc1cc(-c2cn[nH]c2)ccc1-c1ccc(O[C@@H]2C[C@H]3CC(F)(F)[C@@H](C2)N3)nn1 (single isomer, unassigned) [46-ENT2] | 6.30 to 7.00 | 6.30 to 7.00 | 6.30 to 7.00 | 3 | 14.2 | 43.2 | 72 | 83 |  |  | 
Cn1ccc(-c2cc(O)c(-c3ccc(O[C@@H]4C[C@H]5CCC[C@H](N5)[C@@H]4F)nn3)cc2F)cc1=O (single isomer, unassigned) [58-ENT1] | 7.82 to 11.00 | 7.30 to 7.80 | 7.30 to 7.80 | 49 | 0.92 | 45.1 | 97 | 103 |  |  | 
Cn1ccc2cc(-c3ccc(O[C@@H]4C[C@@]5(C)CCC[C@](C)(N5)[C@@H]4F)nn3)c(O)cc2c1=O (single isomer, unassigned) [156-ENT1] | 7.82 to 11.00 | 7.30 to 7.80 | 7.30 to 7.80 | 11 | 4.79 | 52.6 | 86 | 90 |  |  | 
Cn1ccc2cc(O)c(-c3ccc(O[C@H]4C[C@@H]5CCC[C@@H](N5)[C@H]4F)nn3)cc2c1=O (single isomer, unassigned) [128-ENT1] | 7.30 to 7.80 | 7.00 to 7.29 | 7.00 to 7.29 | 7 | 5.27 | 38.6 |  |  | 11 | 5.78 10^−6, cm/s | 65.2 10^−6, cm/s
Cn1ccc2cc(-c3ccc(O[C@H]4C[C@]5(C)CC[C@@](C)(N5)[C@H]4F)nn3)c(O)cc2c1=O (single isomer, unassigned) [127-ENT1] | 7.00 to 7.29 | 6.30 to 7.00 | 6.30 to 7.00 | 7 | 6.39 | 46.5 | 78 | 70 |  |  | 
O=c1cc(-c2ccc(-c3ccc(O[C@H]4C[C@@H]5CCC[C@@H](N5)[C@H]4F)nn3)c(O)c2)cc[nH]1 (single isomer, unassigned) [53-ENT2] | 6.30 to 7.00 | 6.30 to 7.00 | 6.30 to 7.00 | 106 | 0.22 | 23.2 | 104 | 103 |  |  | 
